Experimental data published in patent US5703129A, “5-amino-6-cyclohexyl-4-hydroxy-hexanamide derivatives as inhibitors of β-amyloid protein production” (Bristol-Myers Squibb Company, priority 1996, dated 1997).
Structures can show the parent of a compound that is named as a salt.

Molecular target: T1, γ-Secretase (Homo sapiens, UniProt P49768)
T1 construct: transfected H4 (human neuroglioma) cells stably expressing constructs containing wild-type and mutant forms of β-APP; endogenous in cells; host or cells: H4 human neuroglioma cells, stably transfected with beta-APP (the substrate, not the enzyme)
Test: Inhibition of γ-secretase: ELISA of β-AP made by transfected H4 cells in culture
Format: cell-based
Details: H4 (human neuroglioma) cells expressing β-APP (Swedish variant typically), approximately 16 hours incubation, β-AP in conditioned medium by ELISA
Description: Production and detection of β-AP made by cells in culture. The use of transfected H4 (human neuroglioma) cells stably expressing constructs containing wild-type and mutant forms of β-APP have been used to identify inhibitors of β-AP production. The Swedish variant of β-APP produces 5-7 fold more β-AP than the wild type and is typically used due to its enhanced signal. […] The capture antibody is typically a mouse monoclonal (IgG1/kβ-APPa). The antibody recognizes the carboxyl terminal epitope of β-AP. The specificity of the capture antibody ensures measurement of β-AP without interference by other secreted β-APP fragments that share amino acid sequence (β-AP1-16) with β-AP. The detecting antibody is typically an affinity purified rabbit polyclonal antibody, specific for the amino terminus of β-AP. In the cell-based assay conditioned medium from H4 cells is tested by ELISA for the quantity of β-AP present. The cell-based assay can be used to identify compounds that inhibit β-AP production. The assay should detect agents that inhibit cleavage at the β-secretase and/or the γ-secretase cleavage site as well as detecting any agent that interferes with the production and/or release of β-AP.
A typical ELISA-based assay requires plating of the transfected cells at a density sufficient for the rapid detection of the secreted β-AP (experimentally predetermined for a particular stable cell population) in a 96-well format. Cells are plated for at least six hours prior to the introduction of the test compound at which time the growth medium is replaced by fresh medium containing the agent to be tested. Test agents may typically consist of synthetic compounds, secondary metabolites from bacterial or fungal fermentation extracts, or extracts from plant or marine samples. All synthetic agents are initially screened at doses ranging from 10-100 μM or in the case of extracts at sufficient dilution to minimize cytotoxicity. Incubation of the cells with the test agent will continue for approximately 16 hours at which time equal aliquots of media from each sample well is removed and placed into a previously prepared ELISA plate for β-AP quantitation. The ELISA is carried out in a manner described by others (Haass, et al., 1992; Hawlow and Lane, 1988) and the β-AP signal quantitated. Results are obtained by analysis of the ELISA plate following development and comparison to the mock treated cell populations and samples in which known amounts of β-AP were added to construct a standard concentration curve. […] If a compound is found to be active, then a dose response experiment is performed to determine the lowest dose of compound necessary to elicit the inhibition of the production of β-AP.

SMILES	Activity Rating (Inhibition of γ-Secretase)
CSCCCNC(=O)[C@@H](C[C@H](O)[C@H](CC1CCCCC1)NCCCC(C)C)C(C)C (relative stereo) [Example 32, [αS-(αR*,γR*,δR*)]γ-hydroxy-α-(1-methylethyl)-δ-[(4-methylpentyl)amino]-N-[3-(methylthio)propyl]cyclohexanehexanamide hydrochloride]	+++ (+++ < = 10)
CCCCNC(=O)[C@@H](C[C@H](O)[C@H](CC1CCCCC1)NCCCC1CCCC1)C(C)C (relative stereo) [Example 47, [αS(αR*,γR*,δR*)]-N-Butyl-δ-[(3-cyclopentyl)propyl]amino-γ-hydroxy-α-(1-methylethyl)cyclohexanehexanamide hydrochloride]	+++ (+++ < = 10)
CCCCNC(=O)[C@@H](C[C@H](O)[C@H](CC1CCCCC1)NCCC1CCCCC1)C(C)C (relative stereo) [Example 48, [αS(αR*,γR*,δR*)]-N-Butyl-δ-[(3-cyclohexyl)ethyl]amino-γ-hydroxy-α-(1-methylethyl)cyclohexanehexanamide hydrochloride]	+++ (+++ < = 10)
CC(C)CNC(=O)[C@@H](C[C@H](O)[C@H](CC1CCCCC1)NC1CCC(C)C1)C(C)C (relative stereo) [Example 43, [αS(αR*,γR*,δR*)]-γ-Hydroxy-δ-[(3-methylcyclopentyl)amino]-α-(1-methylethyl)-N-(2-methylpropyl)cyclohexanehexanamide]	+++ (+++ < = 10)
CC(C)CCCN[C@@H](CC1CCCCC1)[C@@H](O)C[C@H](C(=O)NCC(C)C)C(C)C (relative stereo) [Example 30, [αS-(αR*,γR*,δR*)]γ-hydroxy-α-(1-methylethyl)-δ-[(4-methylpentyl)amino]-N-(2-methylpropyl)cyclohexanehexanamide hydrochloride]	+++ (+++ < = 10)
C=CC[C@H](C[C@H](O)[C@H](CC1CCCCC1)NCCCC(C)C)C(=O)NCCCC (relative stereo) [Example 23, [αS-(αR*,γR*,δR*)]N-Butyl-γ-hydroxy-δ-[(4-methylpentyl)amino]-α-(2-propenyl)cyclohexanehexanamide hydrochloride]	+++ (+++ < = 10)
CC(C)CCCN[C@@H](CC1CCCCC1)[C@@H](O)C[C@H](C(=O)NCC(C)(C)C)C(C)C (relative stereo) [Example 31, [αS-(αR*,γR*,δR*)]N-(2,2-dimethylpropyl)-γ-hydroxy-α-(1-methylethyl)-δ-[(4-methylpentyl)amino]cyclohexanehexanamide hydrochloride]	+++ (+++ < = 10)
